Source: patent publication US20260216239A1 (Arizona Board of Regents on Behalf of the University of …, priority 2020, published 2026)
Read-outs that look alike come from different tables or passages of the source.

Key:
Echis leucogaster venom = settings: previously characterized by this laboratory; cited from earlier work
human plasma = type: biochemical
Protocol: Given that the only compounds present with anions different from RuCl3 potentially available to displace Cl in the PBS used was KH2PO4 (1.5 mM) and Na2HPO4 (8.1 mM), a comparison of the effects of 1 and 10 μM RuCl3 (final concentration) dissolved in dH2O or PBS was performed in plasma as a 1% addition (v/v) with coagulation assessed via thrombelastography.
The volumes of subsequently described plasmatic and other additives summed to a final volume of 360 μL. Samples were composed of 320 μL of plasma; 16.4 μL of PBS, 20 μL of 200 mM CaCl2), and 3.6 μL of PBS, RuCl3, or venom solution mixture, which were pipetted into a disposable cup in a Thrombelastograph® hemostasis system (Model 5000, Haemonetics Inc., Braintree, MA, USA) at 37° C., and then rapidly mixed by moving the cup up against and then away from the plastic pin five times. The PBS, RuCl3, or venom solution mixtures was always the last constituent added prior to mixing and data collection. The following viscoelastic parameters described previously (see, Nielsen, V. G.; et al., Biometals 2016, 29, 913-919; Nielsen, V. G.; Losada, P. A. Basic Clin. Pharmacol. Toxicol. 2017, 120, 207-212; Nielsen, V. G.; Frank, N. J. Thromb. Thrombolysis 2019, 47, 533-539; Nielsen, V. G.; Bazzell, C. M. J. Thromb. Thrombolysis 2017, 43, 203-208; Nielsen, V. G.; Matika, R. W. Hum. Exp. Toxicol. 2017, 36, 727-733; Nielsen, V. G.; et al., Toxins 2018, 10, 322; Nielsen, V. G.; et al., Biometals 2018, 31, 51-59; Nielsen, V. G.; Frank, N. et al., Biometals 2018, 31, 951-959; Nielsen, V. G.; et al., Toxins 2019, 11, 94; Nielsen, V. G.; Frank, N. Hum Exp. Toxicol. 2019, 38, 216-226; Nielsen, V. G. J. Thromb. Thrombolysis 2019, 48, 256-262; Nielsen, V. G.; et al., Blood Coagul. Fibrinolysis 2019, 30, 379-384; Nielsen, V. G. J. Thromb. Thrombolysis 2019, 47, 73-79) were measured: time to maximum rate of thrombus generation (TMRTG): this is the time interval (minutes) observed prior to maximum speed of clot growth; maximum rate of thrombus generation (MRTG): this is the maximum velocity of clot growth observed (dynes/cm^2/s); and total thrombus generation (TTG, dynes/cm^2), the final viscoelastic resistance observed after clot formation. Data were collected until the clot strength reached its final plateau (maximum amplitude) that was stable for 3 min.
Thus, experiments wherein RuCl3 was dissolved in either dH2O or PBS were conducted with the final concentration of RuCl3 in plasma being 1 or 10 μM. Data were collected until maximum amplitude was observed.
Specific volumes of subsequently described plasma and chemical additives varied by condition but summated to 360 μl. Sample composition consisted of 320 μl of plasma; 16.4 μl of PBS, 20 μl of 200 mM CaCl2, and 3.6 μl of one of five subsequently described solutions, which were placed into a disposable cup in a computer-controlled Thrombelastograph® hemostasis system (Model 5000, Haemonetics Inc., Braintree, MA, USA) at 37° C., and then rapidly mixed by moving the cup up against and then away from the plastic pin five times before leaving the mixture between the cup and pin.

[1] = 10 vs 1 μM RuCl3 (final) dissolved in PBS
[2] = 10 vs 1 μM RuCl3 (final) dissolved in dH2O

[C-]#[O+].[C-]#[O+].[C-]#[O+].[C-]#[O+].[C-]#[O+].[C-]#[O+].[Cl][Ru][Cl].[Cl][Ru][Cl] [CORM-2, tricarbonyldichlororuthenium(II) dimer]
CORM-2/ iRM Inhibition (Echis leucogaster venom): Yes

[Cl][Ru]([Cl])[Cl] [RuCl3, ruthenium(III) chloride]
increase in MRTG values (human plasma): 37-61% | maximum rate of thrombus generation (MRTG) (human plasma; 1 μM RuCl3 dissolved in PBS vs control conditions, preliminary investigation): increased | total thrombus generation (TTG) (human plasma; 1 and 10 μM RuCl3 in dH2O or PBS, interaction of RuCl3 and fluid): decreased | maximum rate of thrombus generation (MRTG) (human plasma; [1]): increase | time to maximum rate of thrombus generation (TMRTG) (human plasma; [1]): significantly decrease | maximum rate of thrombus generation (MRTG) (human plasma; [2]): increase | time to maximum rate of thrombus generation (TMRTG) (human plasma; [2]): significant decrease | plasmatic TMRTG or TTG values (human plasma; RuCl3 1 μM final in water or PBS vs plasma without RuCl3): no significant differences
